# From patent US12209079B2 (GENERAL INCORPORATED ASSOCIATION PHARMA VALLEY PROJECT …, priority 2017, dated 2025)
# Counter-ions that a name gives are not always drawn.
# Legend:
# [1] = target: rhIDO (recombinant human IDO) (Homo sapiens, UniProt P14902); assay: Enzyme assay using rhIDO (rate of kynurenine production); format: biochemical; conditions: 2 h; final concentration of the compound 10 μM; rate relative to reaction without compound; read-out: rhIDO-mediated kynurenine production
# Summary of the method: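 Kynurenine formation, expressed as % of uncompounded reaction after background subtraction, was read by absorbance at 490 nm following TCA stop, 50 °C hydrolysis and Ehrlich-type p-dimethylbenzaldehyde staining. Recombinant human IDO with ascorbate/methylene blue/catalase was pre-exposed to compound 10 min, then reacted 120 min at 37 °C after adding 2 mM tryptophan stock.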
# [2] = target: rhTDO (recombinant human TDO) (Homo sapiens, UniProt P48775); assay: Enzyme assay using rhTDO (rate of kynurenine production); format: biochemical; conditions: 2 h, read-out: rhTDO-mediated kynurenine production; for remaining activity at 10 µM: final concentration of the compound 10 μM, rate relative to reaction without compound
# Chain of rhTDO (recombinant human TDO) (P48775 whole entry): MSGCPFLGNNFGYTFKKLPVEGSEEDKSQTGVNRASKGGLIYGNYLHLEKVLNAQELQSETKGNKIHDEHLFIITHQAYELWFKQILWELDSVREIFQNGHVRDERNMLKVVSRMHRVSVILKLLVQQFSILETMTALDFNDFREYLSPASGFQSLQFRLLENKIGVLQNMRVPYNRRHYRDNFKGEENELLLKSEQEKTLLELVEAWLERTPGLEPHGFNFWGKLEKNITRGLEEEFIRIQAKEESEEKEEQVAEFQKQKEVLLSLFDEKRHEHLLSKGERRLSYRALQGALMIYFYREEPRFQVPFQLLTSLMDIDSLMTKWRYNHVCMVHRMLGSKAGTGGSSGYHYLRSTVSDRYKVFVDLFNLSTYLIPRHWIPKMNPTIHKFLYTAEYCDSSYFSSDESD
# Summary of the method: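 Kynurenine output, as percent of untreated control after background subtraction, read at 490 nm with p-dimethylbenzaldehyde following TCA quench and 15 min heating at 50 °C. Reaction: rhTDO with compound, 10 min preincubation then 120 min at 37 °C, started by 20 mM tryptophan stock, in phosphate/ascorbate/methylene blue/catalase.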
# IDO in A431 cells = target: T1, IDO in A431 cells (Homo sapiens, UniProt P14902); assay: IDO cell-based assay, kynurenine production in IFN-γ stimulated A431 cells; conditions: A-431, 24 h; final concentration of the compound 10 μM; rate relative to culture without compound
# T1 construct: endogenous in cells; host or cells: A431 cells, IFN-γ stimulated
# T1 sequence (P14902 whole entry): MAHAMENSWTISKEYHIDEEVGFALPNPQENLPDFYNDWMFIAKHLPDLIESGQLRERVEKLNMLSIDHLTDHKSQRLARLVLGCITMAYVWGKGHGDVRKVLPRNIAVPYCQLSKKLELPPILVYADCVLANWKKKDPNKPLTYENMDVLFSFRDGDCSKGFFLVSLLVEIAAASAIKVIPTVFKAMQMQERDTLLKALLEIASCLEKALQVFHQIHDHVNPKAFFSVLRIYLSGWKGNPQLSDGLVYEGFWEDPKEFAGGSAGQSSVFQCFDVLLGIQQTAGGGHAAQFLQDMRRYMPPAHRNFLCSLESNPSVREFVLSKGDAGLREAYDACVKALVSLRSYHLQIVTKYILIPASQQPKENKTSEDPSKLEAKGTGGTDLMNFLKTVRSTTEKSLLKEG
# Summary of the method: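 Kynurenine output was read by absorbance at 460 nm after p-dimethylbenzaldehyde/trichloroacetic acid reagent, background-corrected, and given as % of untreated wells. Before the read, cells in 178 μM L-tryptophan medium had 1 h compound preincubation, then 24 h IFN-γ stimulation (added as 100 ng/mL dilution).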
# TDO in A172 cells = target: T2, TDO in A172 cells (Homo sapiens, UniProt P48775); assay: TDO cell-based assay, kynurenine production in A172 cells; conditions: A 172; final concentration of the compound 10 μM; rate relative to culture without compound
# T2 construct: endogenous in cells; host or cells: A172 cells
# T2 sequence (P48775 whole entry): as the sequence (P48775 whole entry) above
# Summary of the method: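 A172 cells were preincubated with compound for 1 h, then given L-tryptophan (final 524 μM) for 24 h at 37 °C. Kynurenine was read at 460 nm after p-dimethylbenzaldehyde/TCA reagent, background-subtracted, and expressed as % of no-compound production.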
# Chain of rhIDO (recombinant human IDO) (P14902 whole entry): as the sequence (P14902 whole entry) above
remaining activity at 10 µM [1] [%],remaining activity at 10 µM [2] [%],remaining activity at 10 µM (IDO in A431 cells) [%],remaining activity at 10 µM (TDO in A172 cells) [%],remaining activity at 3 µM ([2]; final concentration of the compound 3 μM (data with *)) [%],Structure (SMILES)
78,103,51,26,,"Cc1ccc(CNC(=O)c2ccc(Br)cc2CS/C(N)=N/c2ccc(F)c(Cl)c2)cc1 [Compound 91, 5-Bromo-2-((4-methylbenzyl)carbamoyl)benzyl (E)-N′-(3-chloro-4-fluorophenyl)carbamimidothioate hydrobromide]"
41,8,14,7,,"Fc1ccc(CSC2=NCN(CC3CC3)CN2)c(CSC2=NCN(CC3CC3)CN2)c1 [Compound 120, 6,6′-(((4-Fluoro-1,2-phenylene)bis(methylene))bis(sulfanediyl))bis(3-(cyclopropylmethyl)-1,2,3,4-tetrahydro-1,3,5-triazine)]"
-1,14,8,0,,"Cc1ccc(/N=C(\N)SCc2cc(Cl)c(Cl)cc2CS/C(N)=N/c2ccc(C)cc2)cc1 [Compound 138, (4,5-Dichloro-1,2-phenylene)bis(methylene) (E,E)-bis(N′-(p-tolyl)carbamimidothioate) dihydrobromide]"
84,65,56,18,,"N/C(=N\c1ccc(Br)cc1)SCc1cc(Br)ccc1C(=O)NCc1ccc(Cl)cc1 [Compound 84, 5-Bromo-2-((4-chlorobenzyl)carbamoyl)benzyl (E)-N′-(4-bromophenyl)carbamimidothioate hydrobromide]"
20,21,6,-1,,"Clc1ccc(CCN2CN=C(SCc3ccccc3CSC3=NCN(CCc4ccc(Cl)c(Cl)c4)CN3)NC2)cc1Cl [Compound 22, 1,2-bis(((5-(3,4-dichlorophenethyl)-1,4,5,6-tetrahydro-1,3,5-triazin-2-yl)thio)methyl)benzene]"
51,58,6,19,,"CNC(=N)SCc1ccccc1CSC(=N)NC [Compound 11, 1,2-phenylenebis(methylene) bis(methylcarbamimidothioate) dihydrochloride]"
0,,2,5,16,"N/C(=N\c1ccc(F)cc1F)SCc1cc(Cl)c(Cl)cc1CS/C(N)=N/c1ccc(F)cc1F [Compound 63, (4,5-Dichloro-1,2-phenylene)bis(methylene) (E,E)-bis(N′-(2,4-difluorophenyl)carbamimidothioate) dihydrobromide]"
-3,1,1,4,,"NC(=O)SCc1ccccc1CS/C(N)=N/c1ccc(F)c(Cl)c1 [Compound 59, (E)-S-(2-(((N′-(3-Chloro-4-fluorophenyl)carbamimidoyl)thio)methyl)benzyl) carbamothioate hydrobromide]"
33,56,7,-3,,"COc1ccc(CN2CN=C(SCc3ccccc3CSC3=NCN(Cc4ccc(OC)cc4OC)CN3)NC2)c(OC)c1 [Compound 27, 1,2-bis(((5-(2,4-dimethoxybenzyl)-1,4,5,6-tetrahydro-1,3,5-triazin-2-yl)thio)methyl)benzene]"

# Further lines, the molecule ahead of its results:
Structure (SMILES),remaining activity at 10 µM [1] [%],remaining activity at 10 µM [2] [%],remaining activity at 10 µM (IDO in A431 cells) [%],remaining activity at 10 µM (TDO in A172 cells) [%],remaining activity at 3 µM ([2]; final concentration of the compound 3 μM (data with *)) [%]
"N=C(N)SCc1ccccc1CC(=O)NCCc1ccc(Cl)c(Cl)c1 [Compound 70, 2-(2-((3,4-Dichlorophenethyl)amino)-2-oxoethyl)benzyl carbamimidothioate hydrobromide]",72,35,98,96,
"N=C(N)SCCc1ccccc1CSC(=N)N [Compound 51, 2-(2-(Carbamimidoylthio)ethyl)benzyl carbamimidothioate dihydrobromide]",19,13,23,25,
"COc1ccc(CNC(=O)c2ccc(Br)cc2CSC(=N)N)cc1 [Compound 102, 5-Bromo-2-((4-methoxybenzyl)carbamoyl)benzyl carbamimidothioate hydrobromide]",97,58,112,38,
"COC(=O)c1c(CSC(=N)N)[nH]c2ccccc12 [Compound 32, Methyl 2-((carbamimidoylthio)methyl)-1H-indole-3-carboxylate hydrobromide]",59,51,54,52,
"N#Cc1ccc(CNC(=O)c2ccccc2C[Se]C(=N)N)cc1 [Compound 104, 2-((4-Cyanobenzyl)carbamoyl)benzyl carbamimidoselenoate hydrobromide]",78,81,-4,-1,
"N=C(N)SCc1sc2ccccc2c1CSC(=N)N [Compound 151, Benzo[b]thiophene-2,3-diylbis(methylene) dicarbamimidothioate dihydrobromide]",13,11,33,76,
"COc1ccc(CSC(=N)N)c(CSC(=N)N)c1 [Compound 35, (4-Methoxy-1,2-phenylene)bis(methylene) dicarbamimidothioate dihydrobromide]",24,7,4,0,
